Patent US12077503B2, “Substituted cyclic amides and their use as herbicides” (FMC CORPORATION, priority 2015, dated 2024)

Tests used:
Assay type in all cases: in vivo
[1] = test system: barnyardgrass (Echinochloa crus-galli); test: Test G Post-Emergence Protocol; details: Echinochloa crus-galli, post-emergence, 312 h; for pest or weed control at 15.625 g/ha: 15.625 g ai/ha, evaluated after 13 days (100=total damage to plant; 0=no damage to plant), read-out: Barnyardgrass damage rating; for pest or weed control at 62.5 g/ha: 62.5 g ai/ha, read-out: Barnyardgrass damage rating (100=total damage to plant; 0=no damage to plant); for pest or weed control at 62.5 g/ha / pest or weed control at 250 g/ha: evaluated after 13 days; for pest or weed control at 250 g/ha: 250 g ai/ha, read-out: damage to plant, Barnyardgrass (100=total damage to plant; 0=no damage to plant)
Description: (§1) Seeds of corn (Zea mays), giant foxtail (Setaria faberi), barnyardgrass (Echinochloa crus-galli), ivy-leaved morning glory (Ipomoea hederacea), redroot pigweed (Amaranthus retroflexus) and velvetleaf (Abutilon theophrasti) were sown in standard soil in pots. After cultivation for 8 days under controlled conditions in a glasshouse (at 24/16° C., day/night; 14 hours light; 65% humidity), the plants were sprayed with an aqueous spray solution derived from the formulation of the technical active ingredient in acetone/water (50:50) solution containing 0.5% Tween 20 (polyoxyethylene sorbitan monolaurate, CAS RN 9005-64-5) to give a final dose of 15.625, 62.5 or 250 g/ha of test compound.
(§2) The test plants were then grown on under controlled conditions in a glasshouse (at 24/16° C., day/night; 14 hours light; 65% humidity) and watered twice daily. After 13 days the test was evaluated (100=total damage to plant; 0=no damage to plant). A dash (-) means no test result.

[2] = test system: velvetleaf (Abutilon theophrasti); test: Test G Post-Emergence Protocol; details: Abutilon theophrasti, post-emergence, 312 h; for pest or weed control at 15.625 g/ha: 15.625 g ai/ha, evaluated after 13 days (100=total damage to plant; 0=no damage to plant), read-out: Velvetleaf damage rating; for pest or weed control at 62.5 g/ha: 62.5 g ai/ha, read-out: Velvetleaf damage rating (100=total damage to plant; 0=no damage to plant); for pest or weed control at 62.5 g/ha / pest or weed control at 250 g/ha: evaluated after 13 days; for pest or weed control at 250 g/ha: 250 g ai/ha, read-out: damage to plant, Velvetleaf (100=total damage to plant; 0=no damage to plant)
Description: as §1, §2

corn (Zea mays) = test: Test G Post-Emergence Protocol; details: Zea mays, post-emergence, 312 h; for plant injury at 15.625 g/ha: 15.625 g ai/ha, evaluated after 13 days (100=total damage to plant; 0=no damage to plant), read-out: Corn damage rating; for plant injury at 62.5 g/ha: 62.5 g ai/ha, read-out: Corn damage rating (100=total damage to plant; 0=no damage to plant); for plant injury at 62.5 g/ha / plant injury at 250 g/ha: evaluated after 13 days; for plant injury at 250 g/ha: 250 g ai/ha, read-out: damage to plant, Corn (100=total damage to plant; 0=no damage to plant)
Description: as §1, §2

[3] = test system: ivy-leaved morning glory (Ipomoea hederacea); test: Test G Post-Emergence Protocol; details: Ipomoea, post-emergence, 312 h; for pest or weed control at 15.625 g/ha: 15.625 g ai/ha, evaluated after 13 days (100=total damage to plant; 0=no damage to plant), read-out: Morningglory, Ivy-leaved damage rating; for pest or weed control at 62.5 g/ha: 62.5 g ai/ha, read-out: Morningglory, Ivy-leaved damage rating (100=total damage to plant; 0=no damage to plant); for pest or weed control at 62.5 g/ha / pest or weed control at 250 g/ha: evaluated after 13 days; for pest or weed control at 250 g/ha: 250 g ai/ha, read-out: damage to plant, Morningglory, Ivy-leaved (100=total damage to plant; 0=no damage to plant)
Description: as §1, §2

[4] = test system: giant foxtail (Setaria faberi); test: Test G Post-Emergence Protocol; details: Setaria faberi, post-emergence, 312 h; for pest or weed control at 15.625 g/ha: 15.625 g ai/ha, evaluated after 13 days (100=total damage to plant; 0=no damage to plant), read-out: Foxtail, Giant damage rating; for pest or weed control at 62.5 g/ha: 62.5 g ai/ha, read-out: Foxtail, Giant damage rating (100=total damage to plant; 0=no damage to plant); for pest or weed control at 62.5 g/ha / pest or weed control at 250 g/ha: evaluated after 13 days; for pest or weed control at 250 g/ha: 250 g ai/ha, read-out: damage to plant, Foxtail, Giant (100=total damage to plant; 0=no damage to plant)
Description: as §1, §2

[5] = test system: redroot pigweed (Amaranthus retroflexus); test: Test G Post-Emergence Protocol; details: Amaranthus retroflexus, post-emergence, 312 h; for pest or weed control at 15.625 g/ha: 15.625 g ai/ha, evaluated after 13 days (100=total damage to plant; 0=no damage to plant), read-out: Pigweed, Redroot damage rating; for pest or weed control at 62.5 g/ha: 62.5 g ai/ha, read-out: Pigweed, Redroot damage rating (100=total damage to plant; 0=no damage to plant); for pest or weed control at 62.5 g/ha / pest or weed control at 250 g/ha: evaluated after 13 days; for pest or weed control at 250 g/ha: 250 g ai/ha, read-out: damage to plant, Pigweed, Redroot (100=total damage to plant; 0=no damage to plant)
Description: as §1, §2

[6] = test system: barnyardgrass (Echinochloa crus-galli); test: Test G Pre-Emergence Protocol; details: Echinochloa crus-galli, pre-emergence, 312 h, evaluated after 13 days; for pest or weed control at 15.625 g/ha: 15.625 g ai/ha, read-out: Barnyard grass damage rating (100=total damage to plant; 0=no damage to plant); for pest or weed control at 62.5 g/ha: 62.5 g ai/ha, 100=total damage to plant, 0=no damage to plant, read-out: plant damage rating, Barnyardgrass; for pest or weed control at 250 g/ha: 250 g ai/ha, read-out: Barnyardgrass damage rating (100=total damage to plant; 0=no damage to plant)
Description: as §1, with “one day” for “8 days”
as §2

[7] = test system: velvetleaf (Abutilon theophrasti); test: Test G Pre-Emergence Protocol; details: Abutilon theophrasti, pre-emergence, 312 h, evaluated after 13 days; for pest or weed control at 15.625 g/ha: 15.625 g ai/ha; for pest or weed control at 15.625 g/ha / pest or weed control at 250 g/ha: read-out: Velvetleaf damage rating (100=total damage to plant; 0=no damage to plant); for pest or weed control at 62.5 g/ha: 62.5 g ai/ha, 100=total damage to plant, 0=no damage to plant, read-out: plant damage rating, Velvetleaf; for pest or weed control at 250 g/ha: 250 g ai/ha
Description: as §1, with “one day” for “8 days”
as §2

[8] = test system: ivy-leaved morning glory (Ipomoea hederacea); test: Test G Pre-Emergence Protocol; details: Ipomoea, pre-emergence, 312 h, evaluated after 13 days; for pest or weed control at 15.625 g/ha: 15.625 g ai/ha, read-out: Morning-glory, Ivy-leaved damage rating (100=total damage to plant; 0=no damage to plant); for pest or weed control at 62.5 g/ha: 62.5 g ai/ha, 100=total damage to plant, 0=no damage to plant, read-out: plant damage rating, Morningglory, Ivy-leaved; for pest or weed control at 250 g/ha: 250 g ai/ha, read-out: Morningglory, Ivy-leaved damage rating (100=total damage to plant; 0=no damage to plant)
Description: as §1, with “one day” for “8 days”
as §2

[9] = test system: redroot pigweed (Amaranthus retroflexus); test: Test G Pre-Emergence Protocol; details: Amaranthus retroflexus, pre-emergence, 312 h, evaluated after 13 days; for pest or weed control at 15.625 g/ha: 15.625 g ai/ha; for pest or weed control at 15.625 g/ha / pest or weed control at 250 g/ha: read-out: Pigweed, Redroot damage rating (100=total damage to plant; 0=no damage to plant); for pest or weed control at 62.5 g/ha: 62.5 g ai/ha, 100=total damage to plant, 0=no damage to plant, read-out: plant damage rating, Pigweed, Redroot; for pest or weed control at 250 g/ha: 250 g ai/ha
Description: as §1, with “one day” for “8 days”
as §2

| Compound | pest or weed control at 15.625 g/ha [1] [%] | pest or weed control at 62.5 g/ha [1] [%] | pest or weed control at 250 g/ha [1] [%] | pest or weed control at 15.625 g/ha [2] [%] | pest or weed control at 62.5 g/ha [2] [%] | pest or weed control at 250 g/ha [2] [%] | plant injury at 15.625 g/ha (corn (Zea mays)) [%] | plant injury at 62.5 g/ha (corn (Zea mays)) [%] | plant injury at 250 g/ha (corn (Zea mays)) [%] | pest or weed control at 15.625 g/ha [3] [%] | pest or weed control at 62.5 g/ha [3] [%] | pest or weed control at 250 g/ha [3] [%] | pest or weed control at 15.625 g/ha [4] [%] | pest or weed control at 62.5 g/ha [4] [%] | pest or weed control at 250 g/ha [4] [%] | pest or weed control at 15.625 g/ha [5] [%] | pest or weed control at 62.5 g/ha [5] [%] | pest or weed control at 250 g/ha [5] [%] | pest or weed control at 15.625 g/ha [6] [%] | pest or weed control at 62.5 g/ha [6] [%] | other results |
| --- | --- | --- | --- | --- | --- | --- | --- | --- | --- | --- | --- | --- | --- | --- | --- | --- | --- | --- | --- | --- | --- |
| CN1C[C@H](c2ccc(C(F)(F)F)cc2)[C@@H](C(=O)Nc2cccnc2F)C1=O [Compound 1396] | 80 | 80 | 80 | 40 | 30 | 60 | 70 | 80 | 70 | 40 | 60 | 60 | 80 | 80 | 80 | 70 | 70 | 80 | 80 | 90 | pest or weed control at 250 g/ha [6]: 90%; pest or weed control at 15.625 g/ha [7]: 40%; pest or weed control at 62.5 g/ha [7]: 70%; pest or weed control at 250 g/ha [7]: 80%; pest or weed control at 15.625 g/ha [8]: 0%; pest or weed control at 62.5 g/ha [8]: 70%; pest or weed control at 250 g/ha [8]: 70%; pest or weed control at 15.625 g/ha [9]: 80%; pest or weed control at 62.5 g/ha [9]: 80%; pest or weed control at 250 g/ha [9]: 80% |
| CN1C[C@H](c2ccc(Cl)cc2)[C@@H](C(=O)Nc2cccc(F)n2)C1=O [Compound 1399] | 40 | 70 | 80 | 0 | 40 | 40 | 0 | 0 | 30 | 10 | 30 | 70 | 60 | 80 | 80 | 0 | 20 | 60 | 0 | 90 | pest or weed control at 250 g/ha [6]: 90%; pest or weed control at 15.625 g/ha [7]: 0%; pest or weed control at 62.5 g/ha [7]: 40%; pest or weed control at 250 g/ha [7]: 70%; pest or weed control at 15.625 g/ha [8]: 0%; pest or weed control at 62.5 g/ha [8]: 50%; pest or weed control at 250 g/ha [8]: 60%; pest or weed control at 15.625 g/ha [9]: 0%; pest or weed control at 62.5 g/ha [9]: 30%; pest or weed control at 250 g/ha [9]: 80% |
